Like-named read-outs stand apart in the source and are kept apart here.
Tests used:
Type in all cases: in vivo
[1] = tested on: ducksalad (Heteranthera limosa); test: Test B flooded paddy test; conditions: Heteranthera limosa, Flood, 250 g ai/ha, read-out: Ducksalad plant response rating
Outline: (§1)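 Response scored visually against untreated controls, 0 = no effect and 100 = complete control, 13–15 d after treatment in the greenhouse. Compounds added to paddy water held 3 cm above soil surface. Treatment given at 2-leaf stage.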

[2] = tested on: barnyardgrass (Echinochloa crus-galli); test: Test B flooded paddy test; conditions: Echinochloa crus-galli, Flood, 250 g ai/ha, read-out: Barnyardgrass plant response rating
Outline: as §1

[3] = tested on: sedge, umbrella (small-flower umbrella sedge, Cyperus difformis); test: Test B flooded paddy test; conditions: Cyperus difformis, Flood, 250 g ai/ha, read-out: Sedge, Umbrella plant response rating
Outline: as §1

rice (Oryra sativa) = test: Test B flooded paddy test; conditions: Oryza sativa, Flood, 250 g ai/ha, read-out: Rice plant response rating
Outline: as §1

[4] = tested on: Galium (catchweed bedstraw, Galium aparine); test: Test A postemergence; conditions: Galium, post-emergence, 240 h; for pest or weed control at 125 g/ha: 125 g ai/ha
Outline: (§2)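 Ratings of 0 (no effect) to 100 (complete control) come from visual comparison with untreated controls roughly 10 d after treatment. Test chemicals, formulated in a non-phytotoxic solvent mixture with surfactant, were applied either as a preemergence directed soil spray on seeded soil or postemergence to one- to two-leaf plants 2 to 10 cm tall.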

[5] = tested on: ryegrass, Italian (Italian ryegrass, Lolium multiflorum); test: Test A postemergence; conditions: Lolium multiflorum, post-emergence, 240 h; for pest or weed control at 125 g/ha: 125 g ai/ha
Outline: as §2

[6] = tested on: barnyardgrass (Echinochloa crus-galli); test: Test A postemergence; conditions: Echinochloa crus-galli, post-emergence, 240 h; for pest or weed control at 125 g/ha: 125 g ai/ha
Outline: as §2

[7] = tested on: blackgrass (Alopecurus myosuroides); test: Test A postemergence; conditions: Alopecurus myosuroides, post-emergence, 240 h; for pest or weed control at 125 g/ha: 125 g ai/ha
Outline: as §2

Kochia (Kochia scoparia) = test: Test A postemergence; conditions: Bassia scoparia, post-emergence, 240 h; for pest or weed control at 125 g/ha: 125 g ai/ha
Outline: as §2

[8] = tested on: wheat (Triticum aestivum); test: Test A postemergence; conditions: Triticum aestivum, post-emergence, 240 h
Outline: as §2

[9] = tested on: giant foxtail (Setaria faberii); test: Test A postemergence; conditions: Setaria faberi, post-emergence, 240 h; for pest or weed control at 125 g/ha: 125 g ai/ha
Outline: as §2

corn (Zea mays) = test: Test A postemergence; conditions: Zea mays, post-emergence, 240 h
Outline: as §2

[10] = tested on: pigweed (Amaranthus retroflexus); test: Test A postemergence; conditions: Amaranthus retroflexus, post-emergence, 240 h; for pest or weed control at 125 g/ha: 125 g ai/ha
Outline: as §2

[11] = tested on: ragweed (common ragweed, Ambrosia elatior); test: Test A postemergence; conditions: Ambrosia artemisiifolia, post-emergence, 240 h; for pest or weed control at 125 g/ha: 125 g ai/ha
Outline: as §2

[12] = scale of 0 to 100 where 0 is no effect and 100 is complete control
[13] = 0 to 100 scale where 0 is no effect and 100 is complete control

CN1CC[C@@H](c2cccc(C(F)(F)F)c2)[C@H](C(=O)Nc2ccccc2F)C1=O [Compound 794]
pest or weed control at 250 g/ha [1, 12]: 30%
pest or weed control at 250 g/ha [2, 12]: 40%
pest or weed control at 250 g/ha [3, 12]: 0%
pest or weed control at 250 g/ha (rice (Oryra sativa); [12]): 20%
pest or weed control at 125 g/ha ([4]; postemergence, visual injury after approximately 10 d, 0 to 100 scale (0 no effect, 100 complete control), read-out: Plant response rating, Galium): 0%
pest or weed control at 31 g/ha ([4]; Postemergence, 31 g ai/ha, visual injury after approx. 10 d, 0 to 100 scale, 0 no effect, 100 complete control, read-out: Plant response rating, Galium): 0%
pest or weed control at 125 g/ha ([5]; postemergence, visual injury after approximately 10 d, 0 to 100 scale (0 no effect, 100 complete control), read-out: Plant response rating, Ryegrass, Italian): 0%
pest or weed control at 31 g/ha ([5]; Postemergence, 31 g ai/ha, visual injury after approx. 10 d, 0 to 100 scale, 0 no effect, 100 complete control, read-out: Plant response rating, Ryegrass, Italian): 0%
pest or weed control at 125 g/ha ([6]; postemergence, visual injury after approximately 10 d, 0 to 100 scale (0 no effect, 100 complete control), read-out: Plant response rating, Barnyardgrass): 30%
pest or weed control at 31 g/ha ([6]; Postemergence, 31 g ai/ha, visual injury after approx. 10 d, 0 to 100 scale, 0 no effect, 100 complete control, read-out: Plant response rating, Barnyardgrass): 0%
pest or weed control at 125 g/ha ([7]; postemergence, visual injury after approximately 10 d, 0 to 100 scale (0 no effect, 100 complete control), read-out: Plant response rating, Blackgrass): 0%
pest or weed control at 31 g/ha ([7]; Postemergence, 31 g ai/ha, visual injury after approx. 10 d, 0 to 100 scale, 0 no effect, 100 complete control, read-out: Plant response rating, Blackgrass): 0%
pest or weed control at 125 g/ha (Kochia (Kochia scoparia); postemergence, visual injury after approximately 10 d, 0 to 100 scale (0 no effect, 100 complete control), read-out: Plant response rating, Kochia): 0%
pest or weed control at 31 g/ha (Kochia (Kochia scoparia); Postemergence, 31 g ai/ha, visual injury after approx. 10 d, 0 to 100 scale, 0 no effect, 100 complete control, read-out: Plant response rating, Kochia): 0%
plant injury at 31 g/ha ([8]; Postemergence, 31 g ai/ha, visual injury after approx. 10 d, 0 to 100 scale, 0 no effect, 100 complete control, read-out: Plant response rating, Wheat): 0%
pest or weed control at 125 g/ha ([9]; postemergence, visual injury after approximately 10 d, 0 to 100 scale (0 no effect, 100 complete control), read-out: Plant response rating, Foxtail, Giant): 30%
pest or weed control at 31 g/ha ([9]; Postemergence, 31 g ai/ha, visual injury after approx. 10 d, 0 to 100 scale, 0 no effect, 100 complete control, read-out: Plant response rating, Foxtail, Giant): 0%
Corn plant response rating (crop injury, 0 = no effect, 100 = complete kill) at 125 g/ha (corn (Zea mays); 125 g ai/ha, postemergence, visual injury after approximately 10 d, 0 to 100 scale (0 no effect, 100 complete control)): 0%
Corn plant response rating (crop injury, 0 = no effect, 100 = complete kill) at 31 g/ha (corn (Zea mays); Postemergence, 31 g ai/ha, visual injury after approx. 10 d, 0 to 100 scale, 0 no effect, 100 complete control): 0%
pest or weed control at 125 g/ha ([10]; postemergence, visual injury after approximately 10 d, 0 to 100 scale (0 no effect, 100 complete control), read-out: Plant response rating, Pigweed): 0%
pest or weed control at 31 g/ha ([10]; Postemergence, 31 g ai/ha, visual injury after approx. 10 d, 0 to 100 scale, 0 no effect, 100 complete control, read-out: Plant response rating, Pigweed): 0%
pest or weed control at 125 g/ha ([11]; postemergence, visual injury after approximately 10 d, 0 to 100 scale (0 no effect, 100 complete control), read-out: Plant response rating, Ragweed): 0%
pest or weed control at 31 g/ha ([11]; Postemergence, 31 g ai/ha, visual injury after approx. 10 d, 0 to 100 scale, 0 no effect, 100 complete control, read-out: Plant response rating, Ragweed): 0%

CN1C[C@H](c2ccc(F)c(Br)c2)[C@@H](C(=O)Nc2cccc(F)c2F)C1=O [Compound 1234]
pest or weed control at 250 g/ha [1, 13]: 100%
pest or weed control at 250 g/ha [2, 13]: 90%
pest or weed control at 250 g/ha [3, 13]: 0%
pest or weed control at 250 g/ha (rice (Oryra sativa); [13]): 75%
pest or weed control at 125 g/ha ([4]; postemergence, visual injury vs untreated controls after approx. 10 d, 0 = no effect, 100 = complete control, read-out: Galium plant response rating (0 to 100 scale)): 50%
pest or weed control at 500 g/ha ([4]; 500 g ai/ha, postemergence, 0 to 100 scale, 0 is no effect, 100 is complete control, read-out: Galium plant response rating): 60%
pest or weed control at 125 g/ha ([5]; postemergence, visual injury vs untreated controls after approx. 10 d, 0 = no effect, 100 = complete control, read-out: Ryegrass, Italian plant response rating (0 to 100 scale)): 40%
pest or weed control at 500 g/ha ([5]; 500 g ai/ha, postemergence, 0 to 100 scale, 0 is no effect, 100 is complete control, read-out: Ryegrass, Italian plant response rating): 70%
pest or weed control at 125 g/ha ([6]; postemergence, visual injury vs untreated controls after approx. 10 d, 0 = no effect, 100 = complete control, read-out: Barnyardgrass plant response rating (0 to 100 scale)): 90%
pest or weed control at 500 g/ha ([6]; 500 g ai/ha, postemergence, 0 to 100 scale, 0 is no effect, 100 is complete control, read-out: Barnyardgrass plant response rating): 90%
pest or weed control at 125 g/ha ([7]; postemergence, visual injury vs untreated controls after approx. 10 d, 0 = no effect, 100 = complete control, read-out: Blackgrass plant response rating (0 to 100 scale)): 30%
pest or weed control at 500 g/ha ([7]; 500 g ai/ha, postemergence, 0 to 100 scale, 0 is no effect, 100 is complete control, read-out: Blackgrass plant response rating): 60%
pest or weed control at 125 g/ha (Kochia (Kochia scoparia); postemergence, visual injury vs untreated controls after approx. 10 d, 0 = no effect, 100 = complete control, read-out: Kochia plant response rating (0 to 100 scale)): 40%
pest or weed control at 500 g/ha (Kochia (Kochia scoparia); 500 g ai/ha, postemergence, 0 to 100 scale, 0 is no effect, 100 is complete control, read-out: Kochia plant response rating): 50%
plant injury at 125 g/ha ([8]; 125 g ai/ha, postemergence, visual injury vs untreated controls after approx. 10 d, 0 = no effect, 100 = complete control, read-out: Wheat plant response rating (0 to 100 scale)): 40%
pest or weed control at 125 g/ha ([9]; postemergence, visual injury vs untreated controls after approx. 10 d, 0 = no effect, 100 = complete control, read-out: Foxtail, Giant plant response rating (0 to 100 scale)): 80%
pest or weed control at 500 g/ha ([9]; 500 g ai/ha, postemergence, 0 to 100 scale, 0 is no effect, 100 is complete control, read-out: Foxtail, Giant plant response rating): 90%
plant injury at 125 g/ha (corn (Zea mays); 125 g ai/ha, postemergence, visual injury vs untreated controls after approx. 10 d, 0 = no effect, 100 = complete control, read-out: Corn plant response rating (0 to 100 scale)): 80%
plant injury at 500 g/ha (corn (Zea mays); 500 g ai/ha, postemergence, 0 to 100 scale, 0 is no effect, 100 is complete control, read-out: Corn plant response rating): 100%
pest or weed control at 125 g/ha ([10]; postemergence, visual injury vs untreated controls after approx. 10 d, 0 = no effect, 100 = complete control, read-out: Pigweed plant response rating (0 to 100 scale)): 20%
pest or weed control at 500 g/ha ([10]; 500 g ai/ha, postemergence, 0 to 100 scale, 0 is no effect, 100 is complete control, read-out: Pigweed plant response rating): 50%
pest or weed control at 125 g/ha ([11]; postemergence, visual injury vs untreated controls after approx. 10 d, 0 = no effect, 100 = complete control, read-out: Ragweed plant response rating (0 to 100 scale)): 30%
pest or weed control at 500 g/ha ([11]; 500 g ai/ha, postemergence, 0 to 100 scale, 0 is no effect, 100 is complete control, read-out: Ragweed plant response rating): 30%
